System: E. coli UTI89 K1 capsule, phage K1F lysis, OD600
Assay: inhibition of K1F phage lysis of E. coli UTI89, dose response, capsule biogenesis inhibitor project, strain UTI89, C7 control, set 3 (AID 504675)
Conditions: measured here: cytotoxicity test

| Structure (SMILES) | CC50 [µM] |
| --- | --- |
| COc1ccc2nc(NC(=O)c3ccc(F)cc3)sc2c1 | 21.7 |
| O=C(O)c1cc(-c2cccc(F)c2)nc2ccccc12 | > 300 |
| COc1ccc(C(=O)Nc2nc3ccc(OC)cc3s2)cc1 | > 300 |
| COc1ccc2nc(NC(=O)c3cccs3)sc2c1 | 104 |
| COc1cccc(C(=O)Nc2nc3ccc(OC)cc3s2)c1 | 23.4 |
| COc1ccc2nc(NC(=O)c3ccco3)sc2c1 | 93.4 |
| COc1ccc2nc(NC(=O)c3ccccc3)sc2c1 | 45.4 |
| COc1cccc(-c2cc(C(=O)O)c3ccccc3n2)c1 | 78.3 |
| N=c1n(CCN2CCCC2)c2ccccc2n1CC(O)c1ccc(Cl)c(Cl)c1 (stereo not given) | 9.38 |
| COc1ccc2nc(NC(=O)c3ccccc3OC)sc2c1 | 66.8 |

Reference: PubChem BioAssay AID504675 (Southern Research Specialized Biocontainment Screening …, 2011)
